{"source": "patent US8029830B2", "about": "“Composition and method for promoting internal health and external appearance” (Nuvocare Health Services Inc., priority 2008, dated 2011)", "origin": "cited, not measured here", "key": {"rat kidney fibroblasts": {"tested_on": "rat kidney fibroblasts", "settings": "UVA light"}, "male subjects": {"tested_on": "male subjects", "settings": "cycling capacity"}, "[1]": {"settings": "28 days of supplementation"}, "[2]": {"settings": "in vitro"}, "macrophage cultures": {"tested_on": "macrophage cultures", "settings": "impairment induced by phorbol esters"}, "thymocytes": {"tested_on": "thymocytes", "settings": "irradiated (6 Gy)"}, "[3]": {"tested_on": "lean volunteers and post-obese subjects"}, "older and younger women": {"tested_on": "older and younger women", "settings": "following caffeine ingestion"}, "[4]": {"settings": "human, in vivo"}, "rats": {"tested_on": "rats", "settings": "rat, in vivo"}, "sedentary human subjects": {"tested_on": "sedentary human subjects", "settings": "for body fat percentage, body fat mass and lean body mass: oral ingestion for 12 weeks"}, "[5]": {"tested_on": "human plasma, blood platelets and lymphocytes"}, "[6]": {"tested_on": "rat model of diabetic neuropathy", "settings": "intraperitoneal treatment for 2 weeks"}, "healthy volunteers": {"tested_on": "healthy volunteers", "settings": "daily oral, 8 weeks"}, "[7]": {"tested_on": "persons with type 2 diabetes mellitus"}, "mice": {"tested_on": "mice", "settings": "topical application"}, "pigs": {"tested_on": "pigs", "settings": "pretreatment; hyperbaric oxygen (HBO)"}, "healthy human volunteers": {"tested_on": "healthy human volunteers", "settings": "at the end of the treatment period"}}, "note": "Where two headings read alike, the source gives them in different places.", "data": [{"compound": "CC1=C(/C=C/C(C)=C/C=C/C(C)=C/C=C/C=C(C)/C=C/C=C(C)/C=C/C2=C(C)C(=O)[C@@H](O)CC2(C)C)C(C)(C)C[C@H](O)C1=O", "note": "[astaxanthin]", "values": [{"measurement": "improvement in skin-surface-moisture", "setting": "middle-aged women; oral delivery, after 6 weeks", "result": 52, "unit": "%"}, {"measurement": "reduction in wrinkles", "setting": "middle-aged women; oral delivery, after 6 weeks", "result": 54, "unit": "%"}, {"measurement": "fine lines and wrinkles, elasticity and moisture content", "setting": "middle-aged women; six weeks, instrumentation and dermatologist's review", "result": "significant improvements"}, {"measurement": "indices of oxidative stress (CAT, SOD activities, TBARS)", "setting": "rat kidney fibroblasts", "result": "inhibit these indices of oxidative stress"}, {"measurement": "protective properties compared to beta-carotene and lutein", "setting": "rat kidney fibroblasts", "result": "superior protective properties"}, {"measurement": "plasma 12- and 15-hydroxy fatty acids", "setting": "healthy subjects; during supplementation", "result": "reduced significantly"}, {"measurement": "plasma astaxanthin levels", "setting": "healthy subjects; in vivo", "result": "significantly elevated"}, {"measurement": "tolerability", "setting": "healthy subjects; in vivo", "result": "well tolerated"}]}, {"compound": "NCCC(=O)O", "note": "[beta-alanine]", "values": [{"measurement": "muscle carnosine levels", "setting": "vastus lateralis", "result": "significant increases"}, {"measurement": "onset of neuromuscular fatigue and ventilatory threshold", "setting": "women subjects; 4 weeks, submaximal workloads", "result": "delayed"}, {"measurement": "time-to-exhaustion", "setting": "women subjects; maximal cycle ergometry performance", "result": "increased"}, {"measurement": "muscle carnosine level and total work done", "setting": "male subjects", "result": "significant muscle carnosine level increases, as well as an increase in total work done"}, {"measurement": "increase in PWCFT", "setting": "[1]", "result": 14.5, "unit": "%"}]}, {"compound": "CC[C@H](CC[C@@H](C)[C@H]1CC[C@H]2[C@@H]3CC=C4C[C@@H](O)CC[C@]4(C)[C@H]3CC[C@]12C)C(C)C", "note": "[beta-sitosterol]", "values": [{"measurement": "radical scavenging", "setting": "[2]", "result": "modest radical scavenger"}, {"measurement": "glutathione/oxidized glutathione ratio", "setting": "macrophage cultures", "result": "reverts the impairment"}, {"measurement": "activities of antioxidant enzymes (SOD, CAT, GPx)", "setting": "thymocytes", "result": "increasing"}, {"measurement": "intracellular reactive oxygen species (ROS)", "setting": "thymocytes", "result": "attenuating"}, {"measurement": "irradiation-induced cell death and nuclear DNA strand breaks", "setting": "thymocytes", "result": "decreased"}]}, {"compound": "Cn1c(=O)c2c(ncn2C)n(C)c1=O", "note": "[caffeine]", "values": [{"measurement": "subsequent 12-h night EE", "setting": "[3]; in vivo", "result": "no influence"}, {"measurement": "increase in daily EE", "setting": "[3]; lean volunteers", "result": 150, "unit": "kcal"}, {"measurement": "increase in daily EE", "setting": "[3]; post-obese subjects", "result": 79, "unit": "kcal"}, {"measurement": "increase of energy expenditure (EE)", "setting": "[3]; repeated administration at 2-hour intervals over a 12-hour day period, two subject groups", "result": "8-11%"}, {"measurement": "energy expenditure", "setting": "older and younger women", "result": "increased energy expenditure significantly"}, {"measurement": "energy expenditure", "setting": "[4]", "result": "increased energy expenditure dose dependently"}, {"measurement": "neurodegeneration", "setting": "rats", "result": "protective effects"}]}, {"compound": "C=C[C@@]1(C)CC(=O)[C@]2(O)[C@@]3(C)[C@@H](O)CCC(C)(C)[C@@H]3[C@H](O)[C@H](OC(C)=O)[C@@]2(C)O1", "note": "[forskholin]", "values": [{"measurement": "lean body mass gained, on average", "setting": "sedentary human subjects; in the course of the study", "result": 8.2, "unit": "pounds"}, {"measurement": "body fat percentage, body fat mass and lean body mass", "setting": "sedentary human subjects", "result": "significantly decrease body fat percentage while increasing lean body mass"}, {"measurement": "body fat percentage, body fat mass and lean body mass", "setting": "sedentary human subjects; listed as forkohlin", "result": "decreasing body fat percentage and body fat mass"}]}, {"compound": "Oc1ccc(C=Cc2cc(O)cc(O)c2)cc1", "note": "[resveratrol]", "values": [{"measurement": "oxidative stress levels in plasma", "setting": "[5]; after incubation with platinum compounds", "result": "distinct reduction"}, {"measurement": "biomarker of lipid peroxidation", "setting": "[5]; control blood platelets and platelets treated with platinum compounds", "result": "decreased the production"}, {"measurement": "DNA damage (measured by comet assay)", "setting": "[5]; lymphocytes, vs platinum compounds without resveratrol", "result": "significant decrease"}, {"measurement": "pathologies associated with diabetic neuropathy", "setting": "[6]", "result": "protective effects"}]}, {"compound": "[Zn]", "note": "[zinc]", "values": [{"measurement": "plasma levels of lipid peroxidation products and DNA adducts", "setting": "healthy volunteers", "result": "decreased"}, {"measurement": "decrease of plasma TBARS", "setting": "[7]; after six months", "result": 15, "unit": "%"}, {"measurement": "plasma zinc values", "setting": "[7]; after three and six months of supplementation, all subjects", "result": "greater than 10.7 micro mol/L"}]}, {"compound": "epigallocatechin-3-gallate [EGCG]", "values": [{"measurement": "UVB-induced skin tumor development", "setting": "mice", "result": "prevents UVB-induced skin tumor development"}]}, {"compound": "superoxide dismutase", "values": [{"measurement": "DNA strand-break damage", "setting": "pigs", "result": "protected against DNA strand-break damage"}]}, {"compound": "vitamin E", "values": [{"measurement": "decrease of urine lipid peroxidation products", "setting": "healthy human volunteers", "result": 27, "unit": "%"}]}]}
